Test results: US11548850B2, “Development of a cofilin inhibitor for the treatment of hemorrhagic brain injury-induced neuroinflammation” (The University of Toledo, priority 2019, dated 2023)

Molecular target: cofilin (Homo sapiens, UniProt P23528)
Test: Cofilin inhibition by the compound still protected on one side (no method given)
Conditions: one side of the Formula I structure still protected (TBS)

Sequence of cofilin (P23528 whole entry): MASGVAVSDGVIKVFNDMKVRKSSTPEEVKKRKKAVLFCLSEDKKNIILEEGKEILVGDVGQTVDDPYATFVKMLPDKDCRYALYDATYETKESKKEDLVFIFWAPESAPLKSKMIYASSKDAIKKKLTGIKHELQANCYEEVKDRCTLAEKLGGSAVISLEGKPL

With `CC(C)(C)c1ccc(O)c(CN(Cc2cc(C(C)(C)C)ccc2O[Si](C)(C)C(C)(C)C)C2CCC(NC(N)=O)CC2)c1` (stereo not shown) [SZ-2] as the compound, how does the cofilin inhibition read?
Its cofilin inhibition is “still works to inhibit cofilin”.
